Measured values reported in patent US20210348164A1, “ENDOGENOUS CYTOPLASMIC ALU COMPLEMENTARY DNA IN AGE-RELATED MACULAR DEGENERATION” (University of Virginia Patent Foundation, priority 2018, published 2021).
Entries after “also recorded” stand apart in the source; their conditions may differ.

Test system: Alu cDNA
Assay: Alu cDNA in RPE flat mounts of Casp1/4 dko mice after subretinal Alu RNA (in situ hybridization)
Format: in vivo, mouse
Conditions: subretinal Alu RNA (or Alu G25C RNA), NNRTIs at high doses
Protocol: Subretinal and intravitreous injections. Subretinal injections (1 μl for mice, 3 μl for rat) or intravitreous injections (0.5 μl for mice, 2 μl for rat) in mice or rat were performed using a 35-gauge needle (Ito Co. Fuji, Japan). In vivo transfection of Alu RNA or mutant Alu RNA (3.6-300 ng per eye); Alu complementary DNA (cDNA; 0.0036-90 ng per eye); Alu reverse sequence cDNA (3.6-90 ng per eye); or 7SL cDNA (3.6-90 ng per eye) was performed using 10% NEUROPORTER™ transfection reagent (Genlantis, San Diego, Calif., United States of America) as previously described (Kaneko et al., 2011; Tarallo et al., 2012). 3TC, TM-3TC, Cpep-3TC, Cpep, PA-4 3TC, EFV, DLV, or NVP (50 μM/1 μl or 500 μM/1 μl) were administered by intravitreous injection (Mandal et al., 2011; Nasrolahi et al., 2013). 1 μl of cholesterol-conjugated siRNAs (2 μg/μl) targeting mouse LINE1 or Luc (luciferase control; Dharmacon, Lafayette, Colo., United States of America) were subretinally injected three days prior to Alu RNA or vehicle administration. Similarly, in Oryzomys palustris, rat L1 plasmids expressing ORF1p, ORF2p, reverse transcriptase-deficient ORF2p (pORF2 (RT-)), or endonuclease deficient ORF2p (pORF2 (EN-)) were delivered via subretinal injection three days prior to administering Alu RNA or vehicle. The choice of eye for experimental versus control injection was chosen randomly. Rat L1 plasmids expressing ORF1 and ORF2 have been described previously (Kirilyuk et al., 2008). The ORF2 (EN-) construct contained mutations D207A and H232A, which, by CLUSTALW alignment, correspond to human D205A and H230A (see Feng et al., 1996) in the endonuclease domain of ORF2p. The ORF2 (RT-) construct contained mutation D703A, which, by CLUSTALW alignment, corresponds to human D702A (see Moran et al., 1996) in the reverse transcriptase domain of ORF2p.
In situ hybridization. […] Visualization of fluorescein-labelled probe was performed with the TSA™ plus fluorescence system or the TSA™ plus Cy5 system (PerkinElmer). The fluorescent or Cy5 signals were detected using a Leica SP-5 or MR Nikon confocal microscope system.

Row | Structure (SMILES) | Alu cDNA in RPE in vivo
1 | CC(C)Nc1cccnc1N1CCN(C(=O)c2cc3cc(NS(C)(=O)=O)ccc3[nH]2)CC1 [DLV, delavirdine] | prevented Alu cDNA formation in vivo; also recorded: blocked endogenous cDNA synthesis
2 | O=C1Nc2ccc(Cl)cc2[C@@](C#CC2CC2)(C(F)(F)F)O1 [EFV, efavirenz] | prevented Alu cDNA formation in vivo; also recorded: blocked endogenous cDNA synthesis
3 | Cc1ccnc2c1NC(=O)c1cccnc1N2C1CC1 [NVP, nevirapine] | did not prevent Alu cDNA synthesis
